The text below walks through data of patent US8129558B2, “Pesticide naphthyloxy substituted phenylamidine derivatives” (Bayer Cropscience AG, priority 2005, dated 2012).

Structures are written as SMILES.

The first data set deals with Heliothis viresens. The data set can be described thus: Efficacy Example I: in vivo protective test on Heliothis viresens (HELIVI). To be noted: soybean leaf sections sprayed, infested with eggs of cotton bollworm; concentration and time not given. Details: species or system Heliotis virescens. How it is done:
in vivo Protective Test on Heliothis viresens (HELIVI)
(§1) To produce a suitable preparation of active compound, 1 part by weight of active compound is mixed with the stated amount of solvent and emulsifier, and the concentrate is diluted with emulsifier-containing water to the desired concentration.
Soybean (Glycine max.) leaf sections are sprayed with a preparation of the active ingredient of the desired concentration. Once dry, the leaf sections are infested with eggs of cotton bollworm (Heliotis virescens).
After the specified period of time, mortality in % is determined. 100% means that all eggs have been killed and 0% means that none of the eggs have been killed.
Turning to `CCCN(C)C=Nc1cc(C)c(Oc2ccc3cc(C#N)ccc3c2)cc1C` [Compound 10], the “activity (mortality in %)” value was “good activity”.

In the case of `Cc1cc(Oc2ccc3cc(C(=O)c4ccccc4)ccc3c2)c(C)cc1N=CN(C)C(C)C` [Compound 13], the “activity (mortality in %)” value was “good activity”.

A further data set relates to Myzus persicae. Nature of the data set: Efficacy Example H: in vivo protective test on Myzus persicae (MYZUPE). To be noted: Chinese cabbage leaf-disks infected with all instars of green peach aphid, sprayed; concentration and time not given. How it is done: in vivo Protective Test on Myzus persicae (MYZUPE)
as §1
Chinese cabbage (Brassica pekinesis) leaf-disks infected with all instars of the green peach aphid (Myzus persicae), are sprayed with a preparation of the active ingredient at the desired concentration.
After the specified period of time, mortality in % is determined. 100% means that all aphids have been killed; 0% means that none of the aphids have been killed.
`CCN(C)C=Nc1cc(C)c(Oc2ccc3ccc(OC)cc3c2)cc1C` [Compound 17]: the “activity (mortality in %)” value is “good activity”.

Test system in another data set: not listed separately
Nature of the data set: logP determination by HPLC on reversed-phase column (C18), EEC Directive 79/831 Annex V.A8. Format: physicochemical. To be noted: C18, 40° C., 0.1% aqueous formic acid and acetonitrile. The method, then: Calibration was carried out using unbranched alkan-2-ones (comprising 3 to 16 carbon atoms) with known logP values (determination of the logP values by the retention times using linear interpolation between two successive alkanones).
The compound `CCN(C)C=Nc1cc(C)c(Oc2ccc3cc(Br)ccc3c2)cc1C` [Compound 8] displayed a logPa of 2.69.

The compound `CCN(C)C=Nc1cc(C)c(Oc2cccc3ccccc23)cc1C` [Compound 32] returned a logPa of 2.43.

Turning to `CCCN(C)C=Nc1cc(C)c(Oc2ccc3cc(C(=O)c4ccccc4)ccc3c2)cc1C` [Compound 15], the logPa is listed as 2.77.

Consider `CCN(C)C=Nc1cc(C)c(Oc2ccc3cc(C(=NOC)c4ccccc4)ccc3c2)cc1C` [Compound 28], for which the logPa is given as 3.05.

`Cc1cc(Oc2ccc3cc(C#N)ccc3c2)c(C)cc1N=CN(C)C(C)C` [Compound 12]: the logPa was 2.20.

`CCN(C)C=Nc1cc(C)c(Oc2ccc3ccccc3c2)cc1C.O=C(O)C(=O)O` [Compound 35] returned a logPa of 2.25.

As for `CCCCNc1ccc2ccc(Oc3cc(C)c(N=CN(C)CC)cc3C)cc2c1` [Compound 24], the logPa was 2.62.

Take `CCN(C)C=Nc1cc(C)c(Oc2ccc3ccc(OC)cc3c2)cc1C` [Compound 17]: the logPa is on record as 2.44.

In the case of `COc1ccc2ccc(Oc3cc(C)c(N=CN(C)C(C)C)cc3C)cc2c1` [Compound 16], the logPa was determined as 2.56.

Regarding `CCN(C)C=Nc1cc(C)c(Oc2ccc3cc(C#N)ccc3c2)cc1C` [Compound 11], the logPa was 2.07.

Consider `CCN(C)C=Nc1cc(C)c(Oc2ccc3ccc(O)cc3c2)cc1C` [Compound 5], for which the logPa came out at 1.92.

Take `CCN(C)C=Nc1cc(C)c(Oc2ccc3cc(C(O)c4ccccc4)ccc3c2)cc1C` (racemic) [Compound 19]: the logPa stood at 2.21.

`Cc1cc(Oc2ccc3ccc(O)cc3c2)c(C)cc1N=CN(C)C(C)C` [Compound 6] showed a logPa of 2.02.

As for `CC(=O)O.CCN(C)C=Nc1cc(C)c(Oc2ccc3ccccc3c2)cc1C` [Compound 34], the logPa is 2.33.

Consider `CCCN(C)C=Nc1cc(C)c(Oc2ccc3cc(Br)ccc3c2)cc1C` [Compound 9], for which the logPa stood at 2.89.

The compound `Cc1cc(Oc2ccc3ccccc3c2)c(C)cc1N=CN1CCCC1` [Compound 26] yielded a logPa of 2.33.

In turn, `CCCN(C)C=Nc1cc(C)c(Oc2ccc3cc(C#N)ccc3c2)cc1C` [Compound 10] returned a logPa of 2.23.

The compound `Cc1cc(Oc2ccc3ccccc3c2)c(C)cc1N=CN1CCNCC1` [Compound 22] registered a logPa of 1.55.

`COc1ccc2cc(Oc3cc(C)c(N=CN(C)C(C)C)cc3C)ccc2c1` [Compound 30] had a logPa of 2.70.

`CCCN(C)C=Nc1cc(C)c(Oc2ccc3cc(C(=NOC)c4ccccc4)ccc3c2)cc1C` [Compound 29] yielded a logPa of 3.14.

`Cc1cc(Oc2ccc3cc(C(=O)c4ccccc4)ccc3c2)c(C)cc1N=CN(C)C(C)C` [Compound 13] registered a logPa of 2.75.

On to `CCCN(C)C=Nc1cc(C)c(Oc2ccc3ccc(OC)cc3c2)cc1C` [Compound 18], for which the logPa worked out at 2.61.

`Cc1cc(Oc2ccc3cc(Br)ccc3c2)c(C)cc1N=CN(C)C(C)C` [Compound 7]: the logPa is 2.92.

As for `CCCCNc1ccc2ccc(Oc3cc(C)c(N=CN(C)CCC)cc3C)cc2c1` [Compound 25], the logPa is given as 2.91.

In the case of `CCCCNc1ccc2ccc(Oc3cc(C)c(N=CN(C)C(C)C)cc3C)cc2c1` [Compound 20], the logPa came out at 2.91.

Compound `CCN(C)C=Nc1cc(C)c(Oc2ccc3ccccc3c2)cc1C.O=C(O)c1ccccc1` [Compound 36] came in with a logPa of 2.44.

`Cc1cc(Oc2ccc3cc(S(=O)(=O)NCCO)ccc3c2)c(C)cc1N=CN(C)C(C)C` [Compound 31]: the logPa came to 1.75.

The compound `Cc1cc(Oc2ccc3ccccc3c2)c(C)cc1N=CN(C)C(C)C` [Compound 4] displayed a logPa of 2.52.

Compound `Cc1cc(Oc2ccc3ccccc3c2)c(C)cc1N=CN1CCN(C)CC1` [Compound 23] registered a logPa of 1.64.

Regarding `CON=C(c1ccccc1)c1ccc2cc(Oc3cc(C)c(N=CN(C)C(C)C)cc3C)ccc2c1` [Compound 27], the logPa amounted to 3.20.

For the compound `Cc1cc(Oc2ccc3ccccc3c2)c(C)cc1N=CN1CCOCC1` [Compound 21], the logPa is recorded as 2.21.

With `CCN(C)C=Nc1cc(C)c(Oc2ccc3cc(C(=O)c4ccccc4)ccc3c2)cc1C` [Compound 14], the logPa is reported as 2.66.

The data set is the same for the next values; noted with them: pH 2.3, C18.
Turning to `Cc1cc([N+](=O)[O-])c(C)cc1Oc1ccc2ccccc2c1` [4-(naphthyl-2-oxy)-2,5-dimethylnitrobenzene], the “log P (pH 2.3)” value is 5.04.

As for `Cc1cc(Oc2ccc3ccccc3c2)c(C)cc1N=CN1CCCCC1` [Compound 2, Piperidinyl-N-[4-(naphthyl-2-oxy)-2,5-xylyl]form-amidine], the “log P (pH 2.3)” value is 2.51.

Take `CCN(C)C=Nc1cc(C)c(Oc2ccc3ccccc3c2)cc1C` [Compound 1, N-ethyl-N-methyl-N′-[4-(naphthyl-2-oxy)-2,5-xylyl]form-amidine]: the “log P (pH 2.3)” value is recorded as 2.38.
